Data on one compound can be found in patent US10493061B2, “Compositions and methods comprising 2-(acylamino)imidazoles” (priority 2014, dated 2019).

The test system of experiment [1] is mouse metallothionein expression (MT1 and MT2) in renal and hepatic tissue. The experiment is described as follows: RT-PCR of metallothionein expression in tissue of treated mice. The experiment is classed as in vivo, FVB/NJ mice. The following applies: ZNA 100 mg/kg intraperitoneal. Here is the method: Real-Time PCR (RT-PCR): For experiments designed to measure gene expression, real-time PCR (RT-PCR) was conducted using a LightCycler 480 (Roche, Basel, Switzerland) and KAPA SYBR FAST qPCR Master Mix (Kapa Biosystems, Boston, Mass., USA). […] Genomic DNA was removed with a DNase digest and 1 μg of RNA was used to synthesize cDNA using a Superscript III Reverse Transcriptase kit from Invitrogen per the manufacturer's protocol; after an RNase H digestion, RT-PCR was performed in a 5 μL reaction using KAPA SYBR FAST qPCR Master Mix (Kapa Biosystems, Boston, Mass., USA). […]; Nat Protocols 2008; 3(6):1101-08. For tissue derived from mouse in vivo experiments, fresh tissue was homogenized using a TissueLyser II for 3 minutes at 30 Hz before isolating RNA.
The next experiment established the relevancy of the biological pathways targeted by ZNA in a whole organism tumor model. To establish bioactivity, the response of normal tissue to ZNA was evaluated. Non-tumor bearing FVB/NJ mice were treated with ZNA (at 100 mg/kg administered via intraperitoneal injection) or a control for either 3 or 24 hours. RT-PCR was used to assess mouse metallothionein expression (MT1 and MT2) in renal and hepatic tissue from the treated mice.

The test system of experiment [2] is hTERT-HMEC normal mammary epithelial cells. The experiment is described as follows: Dose response, ATP cell viability assay. Format: cell-based, human.
Experiment [3] in a line: Isothermal titration calorimetry of the small molecule with zinc or copper. Format: binding. The conditions noted are these: ITC, data not shown.
The next experiment relates to MCF-10A cells. In words: Intracellular Zn^2+ by FluoZin-3 staining and flow cytometry. The experiment is classed as cell-based, human. How it is done:
(§1) Measurement of intracellular Zn^2+ by FluoZin-3 staining: Cells were seeded in 6-well plates at a density such that at the time of analysis, wells would be 70-80% confluent. Following the completion of treatment, the drug-containing media was removed and replaced with Hank's Balanced Salt Solution (HBSS, Life Technologies) containing 2.5 μM FluoZin-3. The cells were incubated with the indicator for 30 minutes at room temperature in the dark. After staining, the cells were trypsinized, resuspended in HBSS containing 2% FBS, and relative mean fluorescence was measured by flow cytometry (FACscan, BD Biosciences, San Jose, Calif., USA).
(§2) In order to determine whether the transcriptional changes in metal trafficking genes were functionally relevant to ZNA's mechanism of action, intracellular Zn^2+ was quantified using the fluorescent indicator FluoZin-3 followed by flow cytometry analysis (FIG. 1G).
To better understand the cancer-selective synergism observed between ZNA and Zn^2+, an experiment was conducted to measure intracellular Zn^2+ using the fluorescent Zn^2+ indicator FluoZin-3.
(§3) Further probing the ability of ZNA to stimulate increases in intracellular Zn^2+, MCF-10A and MCF-7 cells were treated for three hours with 30 μM ZNA (both with and without exogenous ZnSO4) in zinc-free media; intracellular zinc was then quantified by FluoZin-3 staining (FIG. 3B).

The test system of another experiment is LC3 in MCF-10A cells. In words: Western blot of autophagosome-associated protein LC3A/B. Format: cell-based, human. How it is done: Western blot analysis: For analysis of protein expression by Western blot analysis, the procedure set forth in Gligorich et al. was used. Gligorich K, Vaden R, Shelton D, Wang G, Matsen C, Looper R, et al. Development of a screen to identify selective small molecules active against patient-derived metastatic and chemoresistant breast cancer cells. Breast Cancer Res 2013; 15(4):R58. The cells were cultured and treated in 10-cm plates. Cells were harvested in cold radioimmunoprecipitation assay (RIPA) buffer (50 mM Tris-HCl, 150 mM NaCl, 0.1% sodium dodecyl sulfate (SDS), 0.5% sodium deoxycholate, and 1% Triton X-100) supplemented with protease and phosphatase inhibitors (Sigma). Protein concentration was measured using a BCA assay (Thermo Scientific) and […] of protein was resolved by gel electrophoresis using an SDS polyacrylamide gel. Protein was transferred to an Immobilon-FL PVDF membrane (Millipore, Billerica, Mass., USA) and the membrane was blocked for 1 hour at room temperature with Odyssey blocking buffer (Li—COR). […]
Further cell death characterization studies were also conducted to establish the role of autophagy in ZNA-mediated cell death. To assess the level of autophagic induction following treatment with ZNA, levels of the autophagosome-associated protein LC3A/B were measured by western blot analysis. […]
In general terms: A western blot detects proteins with antibodies after separation by electrophoresis.

A further experiment deals with MCF-7s. In words: Cell viability of MCF-7 cells treated with ZNA and ZNA analogues. The experiment is classed as cell-based, human. The conditions noted are these: Homo sapiens, MCF7S; 24 h treatment. From the text: Of the analogues evaluated, those with more electron-donating groups at C5 or on the N^2-carbonyl seem to improve activity.
In experiment [4] the test system is pleural effusion (PE1100025) primary metastatic breast cancer cells. The experiment is described as follows: 12-point dose response, ATP cell viability assay. The experiment is classed as cell-based, human. The following applies: 12-point dose response.
In experiment [5] the test system is cancer cells (malignant cell types tested). The experiment is described as follows: Clonogenic cell survival assay. The conditions noted are these: 24 hours ZNA, then three weeks of growth, crystal violet.
Procedure: Clonogenic cell survival assays were conducted as described in Franken NAP, Rodermond H M, Stap J, Haveman J, van Bree C.
Further experiments were also conducted to assess the effects of short-term ZNA treatment on long-term cell survival and proliferation. Cells were treated for 24 hours with ZNA then cultured in the absence of the small molecule; following three weeks of growth, colonies were stained with crystal violet and quantified (FIG. 1D).
Experiment [6] concerns MCF-10A normal mammary epithelial cell line. The experiment is described as follows: Dose response, luciferase-based ATP (ATPlite) viability assay. Format: cell-based, human. The conditions noted are these: five days of treatment. A general note: Cellular ATP, detected with luciferase, serves as a proxy for viable cell number.
For the next experiment, the system named is MCF-7 cells. The experiment is described as follows: Intracellular Zn^2+ by FluoZin-3 staining and flow cytometry. Format: cell-based, human. Here is the method: as §1, §2, §3
The subject of experiment [7] is metal trafficking genes (MT1F, MT1X, MT2A, SLC30A1, SLC30A2) in MCF-7 cells. In words: Transcriptome sequencing (RNA-seq). The following applies: 30 μM ZNA, 3 hours, sustained at 12 hours.
Experiment [8] has as its system MCF-10A normal mammary epithelial cell line. The experiment is described as follows: Cell viability (ATP quantification) with exogenously added transition metals.
Procedure: Three breast cancer cell lines (MCF-7, T47D, and MDA-MB-231) and a normal mammary epithelial cell line (MCF-10A) were treated with 30 μM ZNA in conjunction with 30 M CuSO4, ZnSO4, Fe(III)Cl3, Fe(II)SO4, NiSO4, MnCl2, or CoCl2 for 48 hours; following the completion of treatment, cell viability was measured using an ATP quantification assay (FIG. 2A).
The mark [9] stands for this setting: 30 μM ZNA alone, three hours, zinc-free media.
Setting [10] is: ZNA and ZnSO4, three hours, zinc-free media, compared to ZnSO4 alone.

Regarding `COc1ccc(-c2c(Cc3ccccc3)[nH]/c(=N\C(=O)c3ccccc3F)n2C)cc1` [ZNA, (E)-N-(4-benzyl-5-(4-methoxyphenyl)-1-methyl-1H-imidazol-2(3H)-ylidene)-2-fluorobenzamide], the “MT1 and MT2 expression” value is on record as “increased” in [1] (3 hours, vs control treated mice) and “decreased” in [1] (24 hours). For the same compound, the cell viability entry in experiment [2] is “largely unaffected”; in experiment [4], “effective at low micromolar concentrations”; in experiment [6], “largely unaffected”; in experiment [8] (30 μM ZNA with CuSO4, 48 hours), “significant reduction in cell viability”; in experiment [8] (30 μM ZNA with ZnSO4, 48 hours) it was “only a partial reduction in cell number”. For the same compound, the “direct interaction with zinc or copper” value in experiment [3] is listed as “no evidence to suggest direct binding”. Also, the FluoZin-3 fluorescence result with MCF-10A cells (setting [9]) and with MCF-7 cells (setting [9]) was “no significant increase in FluoZin-3 fluorescence” in each case. In addition, in the experiment with MCF-10A cells (30 μM ZNA alone, up to 48 hours), the “intracellular zinc (FluoZin-3)” value is “only modest increases in intracellular zinc”. Besides, the “increase in FluoZin-3 fluorescence” value with MCF-10A cells (30 μM ZNA with 30 μM ZnSO4, three hours) amounted to 9 fold; in the experiment on MCF-7 cells (30 μM ZNA alone, 48 hours) it was 13 fold. Further, the “fluorescence (FluoZin-3)” value in the experiment with MCF-10A cells (setting [10]) was “reduction in fluorescence”. Further, the LC3 protein result in the experiment on LC3 in MCF-10A cells (30 μM ZNA with 30 μM ZnSO4, 6 hours) is recorded as “significant increases were not observed”. In addition, the LC3 level result in the experiment on LC3 in MCF-10A cells (ZNA alone, 48 and 72 hours) is given as “only in the cancer cell lines”. In the experiment on MCF-7s, this compound yielded an IC50 of 8.8 µM. The “long-term proliferative potential (colonies)” value in experiment [5] was “significantly affected long-term proliferative potential”. The “increase in fluorescence (FluoZin-3)” value in the experiment on MCF-7 cells (setting [10]) amounted to 4.3 fold. Further, the “metallothionein gene expression (MT1F, MT1X, MT2A)” value in experiment [7] is listed as “increased metallothionein gene expression”.

One may read the IC50 as the concentration that gives 50% inhibition. A higher IC50 goes with weaker potency.
